Results reported in publication PMC3261798, “Design, Synthesis, and Biological Evaluation of PKD Inhibitors” (Pharmaceutics, 2011).
Where “and” joins values, the source holds several entries; their conditions need not be identical. Equal entries are not always repeated.

Key:
all PKD isoforms = conditions: cited from earlier work
PKD1 [1] = biological target: T1, PKD1 (Homo sapiens, UniProt Q15139); test: In vitro radiometric PKD kinase activity assay; type: biochemical; parameters: purchased Biomol International; conditions: for inhibitory activity against PKD (in words): preliminary biological data for kmg-NB5-13 and kmg-NB5-15; for fold improvement in PKD1 potency over CID755673: relative to parent CID755673
T1 sequence (Q15139 1-912): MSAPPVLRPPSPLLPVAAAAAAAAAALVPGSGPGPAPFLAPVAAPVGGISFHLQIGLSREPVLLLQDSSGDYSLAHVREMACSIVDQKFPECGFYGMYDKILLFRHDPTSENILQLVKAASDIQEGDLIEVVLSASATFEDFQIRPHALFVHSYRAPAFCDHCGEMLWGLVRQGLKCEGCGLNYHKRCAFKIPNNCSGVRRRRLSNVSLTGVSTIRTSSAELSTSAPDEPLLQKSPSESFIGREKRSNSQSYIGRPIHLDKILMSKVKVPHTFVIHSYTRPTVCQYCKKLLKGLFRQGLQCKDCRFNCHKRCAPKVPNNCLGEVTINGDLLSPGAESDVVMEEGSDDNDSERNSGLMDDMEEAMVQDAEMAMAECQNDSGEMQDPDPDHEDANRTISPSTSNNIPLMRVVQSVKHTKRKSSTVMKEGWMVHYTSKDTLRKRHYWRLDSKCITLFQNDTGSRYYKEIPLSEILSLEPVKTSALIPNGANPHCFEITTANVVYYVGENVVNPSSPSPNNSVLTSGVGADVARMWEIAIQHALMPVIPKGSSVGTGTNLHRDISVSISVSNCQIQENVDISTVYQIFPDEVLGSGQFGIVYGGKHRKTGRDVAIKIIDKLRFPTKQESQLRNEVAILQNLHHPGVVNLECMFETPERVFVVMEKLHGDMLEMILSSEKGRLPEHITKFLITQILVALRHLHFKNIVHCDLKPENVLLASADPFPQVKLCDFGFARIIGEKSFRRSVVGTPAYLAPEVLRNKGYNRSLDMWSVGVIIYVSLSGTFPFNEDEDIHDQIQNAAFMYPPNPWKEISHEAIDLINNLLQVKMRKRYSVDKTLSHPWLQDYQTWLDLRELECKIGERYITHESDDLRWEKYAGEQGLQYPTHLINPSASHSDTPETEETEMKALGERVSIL
Description: In vitro radiometric PKD kinase assays were conducted as previously described. Briefly, 50 ng recombinant human PKD1 (Biomol International, Plymouth Meeting, PA, USA) was incubated at 30 °C for 10 min with a reaction mixture containing 2.5 μg syntide-2 (Sigma), 70 μM ATP, and 1 μCi γ-^32 P-ATP (PerkinElmer, Boston, MA, USA) in kinase buffer (50 mM Tris-HCl pH 7.5, […], and 10 mM […]). 25 μL of the reaction mixture was then spotted on Whatman P81 filter paper (Whatman Inc., Clifton, NJ, USA), and filter papers were washed three times with 0.5% phosphoric acid, dried, then counted using a Beckman LS6500 multi-purpose scintillation counter.

Aqueous solubility = type: physicochemical; conditions: aqueous medium with lipophilic solubilizing agents; even in the presence of lipophilic solubilizing agents
PKD1 [2] = biological target: T1, PKD1; test: Cellular PKD1 inhibition: densitometry of Western blots for PKD1 autophosphorylation at S916 in PMA-stimulated LNCaP cells; type: cell-based; conditions: for EC50: PMA-induced autophosphorylation of endogenous PKD1 in LNCaP prostate cancer cells; for fold improvement in cellular activity over CID755673: cellular EC50 relative to CID755673
Description: Inhibition of PKD 1 in cells was determined by densitometry analysis of Western blotting data for PKD1 autophosphorylation at Ser^916 in LNCaP cells as previously described. LNCaP cells were pre-treated with PKD inhibitors for 45 min at various concentrations, and then stimulated with 10 nM phorbol 12-myristate 13-acetate (PMA) for 20 min. Cells were then collected and lysed in lysis buffer containing 200 mM Tris-HCl, pH 7.4, 100 μM 4-(2-aminoethyl) benzenesulfonyl fluoride, 1 mM EGTA, and 1% Triton X-100. Cell lysates were probed by Western blot analysis using primary antibodies targeting p-S916-PKD1 (Millipore), PKD1 (Cell Signaling Technology), or GAPDH. Densitometry analysis of visualized bands was used to determine the cellular IC50 values for PKD1 inhibition.

PKD1 [3] = biological target: T1, PKD1; test: IMAP-based PKD Fluorescence Polarization (FP) assay, automated HTS format; type: biochemical; conditions: mean ± SEM, n = number of independent experiments
Description: An automated, HTS formatted IMAP-based PKD Fluorescence Polarization (FP) assay was used to assess the specificity of the PKD analogs as previously described. […] Kinase reactions were incubated for 90 min at room temperature and stopped by the addition of IMAP binding reagent. Assay plates were then incubated for 2 h and IMAP-based FP data were captured on a Molecular Devices Spectra-Max M5 (Sunnyvale, CA, USA).

PKD1 [4] = biological target: T1, PKD1; test: % PKD1 activity at 1 μM (single concentration; assay format not stated); type: biochemical; conditions: compound at 1 μM
[5] = Preliminary in vivo studies (plasma half-life, metabolism; data not shown); conditions: for plasma half-life: preliminary in vivo studies, data not shown
[6] = Stability in protic solvents; type: physicochemical; conditions: attributed to nucleophilic attack at C-4 of the pyrimidine
[7] = mean ± SEM, n = number of independent experiments, read-out: IC50 Radiometric PKD1
[8] = PKD1 autophosphorylation at S916 in LNCaP cells, mean ± SEM

## NC(=O)c1cc(-c2ccnc(NC3CCCCC3)c2)nc(N2CCNCC2)c1 [BPKDi]
All PKD isoforms
  IC50 values, all three isoforms of PKD: single digit nanomolar

## COc1ncc2sc3c(c2n1)SCCNC3=O [kmg-NB4-23, 2-Methoxy-7H,8H,9H-1,4-thiazepino [7′,6′-5,4]thiopheno[3,2-d]pyrimidin-6-one]
PKD1 [1]; in vitro, read-out: PKD1 IC50
  IC50: 124 nM
PKD1 [1]; [7]
  IC50: 120 ± 30 nM
PKD1 [1]
  inhibitory activity against PKD (in words): potent nanomolar inhibitor
Aqueous solubility
  solubility: < 400 µg/mL
other
  melting point: 308 °C (dec.)
PKD1 [2]; [8]
  IC50: 6800 ± 1300 nM

## [N-]=[N+]=Nc1ccc2sc3c(c2c1)SCCNC3=O [mcf292-08, 3,4-Dihydro-9-azido-[1]benzothieno[2,3-f]-1,4-thiazepin-5(2H)-one]
PKD1 [1]; in vitro, read-out: PKD1 IC50
  IC50: 74.9 nM
PKD1 [1]; [7]
  IC50: 80 ± 10 nM
other
  melting point: 193 °C (dec.)
PKD1 [2]; [8]
  IC50: 2200 nM and 2170 nM

## O=C1NCCCc2c1[nH]c1ccc(O)cc21 [kb-NB123-57, 3,4,5,10-Tetrahydro-7-hydroxy-azepino[3,4-b]indol-1(2H)-one]
PKD1 [1]; [7]
  IC50: 130 ± 10 nM
PKD1 [3]
  IC50: 2140 ± 120 nM
PKD1 [2]; [8]
  IC50 Cellular PKD1: no significant cellular activity

## C[C@H](C#N)Nc1cccc(-c2cc(-c3ccc(CNC4CCOCC4)cc3)on2)c1 [Compound 2b]
All PKD isoforms
  IC50s, all PKD isoforms: low nanomolar
  fold preference for PKD1 versus PKD2: 9 fold
  fold preference for PKD1 versus PKD3: 3 fold

## O=C1NCCCSc2c1sc1ccc(O)cc21 [kb-NB165-92, 2,3,4,5-Tetrahydro-10-hydroxybenzo[b]thieno[2,3-f]-1,5-thiazocin-6-one]
PKD1 [1]; [7]
  IC50: 110 ± 10 nM
PKD1 [2]; [8]
  IC50: 2560 ± 660 nM
PKD1 [4]
  remaining activity at 1 µM: 16.7%

## O=C1NCCSc2c1sc1ccc(O)cc21 [kb-NB142-70, 3,4-Dihydro-9-hydroxy-[1]benzothieno[2,3-f]-1,4-thiazepin-5(2H)-one]
PKD1 [1]; [7]
  IC50: 28 ± 2 nM
PKD1 [1]
  fold improvement in PKD1 potency over CID755673: ~7 fold
[5]
  plasma half-life: short
[5]; preliminary results from an animal model
  major metabolic pathway: glucuronidation of kb-NB142-70 at the phenolic position to be a major metabolic pathway
PKD1 [3]
  IC50: 710 ± 20 nM
PKD1 [2]; [8]
  IC50: 2220 ± 590 nM
PKD1 [2]
  EC50: 2200 nM
  fold improvement in cellular activity over CID755673: ca. 5 fold

## COc1ccc2sc3c(c2c1)SCCNC3=O [kb-NB165-09, 3,4-Dihydro-9-methoxy-[1]benzothieno[2,3-f]-1,4-thiazepin-5(2H)-one]
PKD1 [1]; [7]
  IC50: 80 ± 10 nM
PKD1 [1]
  fold improvement in PKD1 potency over CID755673: ca. 7 fold
[5]
  plasma half-life: short
PKD1 [2]; [8]
  IC50: 3130 ± 540 nM
PKD1 [2]
  EC50: 3100 nM
  fold improvement in cellular activity over CID755673: ca. 5 fold

## CC[C@@H](N)CNc1ccnc(-c2cc(-c3cnn(C)c3)ccc2O)n1.Cl.Cl [CRT0066101]
All PKD isoforms
  IC50s, all isoforms of PKD: single-digit nanomolar

## O=C1NCCSc2c1sc1ccc(O)c(I)c21 [kb-NB165-31, 3,4-Dihydro-9-hydroxy-10-iodo-[1]benzothieno[2,3-f]-1,4-thiazepin-5(2H)-one]
PKD1 [1]; in vitro, read-out: PKD1 IC50
  IC50: 114 nM
PKD1 [1]; [7]
  IC50: 110 ± 20 nM
other
  melting point: 128 °C (dec.)
PKD1 [2]; relative to kb-NB142-70
  fold lower cellular activity than kb-NB142-70: 4 fold
PKD1 [4]
  remaining activity at 1 µM: 13.6%

## O=C1NCCSc2c1sc1cnc(O)nc21 [kmg-NB4-69A, 2-Hydroxy-7H,8H,9H-1,4-thiazepino[7′,6′-5,4]thiopheno[3,2-d]pyrimidin-6-one]
PKD1 [1]; [7]
  IC50: 25300 nM
PKD1 [1]
  inhibitory activity against PKD (in words): only weak inhibitory effect
[6]
  stability in protic solvents: spontaneously degrades in protic solvents

## O=C1NCCCc2c1oc1ccc(O)cc21 [CID755673, 7-Hydroxy-2,3,4,5-tetrahydro-[1]benzoxolo[2,3-c]azepin-1-one]
PKD1 [1]; [7]
  IC50: 180 ± 20 nM
All PKD isoforms
  IC50: 200 to 300 nM
PKD1 [3]
  IC50: 640 ± 30 nM
PKD1 [2]; [8]
  IC50: 11800 ± 4000 nM
PKD1 [2]
  EC50: 11800 nM
